Measurements taken from paper PMC7187199, “Investigation of a New Type I Baeyer–Villiger Monooxygenase from Amycolatopsis thermoflava Revealed High Thermodynamic but Limited Kinetic Stability” (Chembiochem, 2020).

Tests used:
TmCHMO = biological target: T1, TmCHMO (Thermocrispum municipale, UniProt A0A1L1QK39); assay: NADPH oxidation at […] nm; type: biochemical; settings: 0.5 mM cyclohexanone, 100 μM NADPH, 10 μM FAD, 50 mM Tris-HCl, 30 °C
T1 sequence (A0A1L1QK39 1-541): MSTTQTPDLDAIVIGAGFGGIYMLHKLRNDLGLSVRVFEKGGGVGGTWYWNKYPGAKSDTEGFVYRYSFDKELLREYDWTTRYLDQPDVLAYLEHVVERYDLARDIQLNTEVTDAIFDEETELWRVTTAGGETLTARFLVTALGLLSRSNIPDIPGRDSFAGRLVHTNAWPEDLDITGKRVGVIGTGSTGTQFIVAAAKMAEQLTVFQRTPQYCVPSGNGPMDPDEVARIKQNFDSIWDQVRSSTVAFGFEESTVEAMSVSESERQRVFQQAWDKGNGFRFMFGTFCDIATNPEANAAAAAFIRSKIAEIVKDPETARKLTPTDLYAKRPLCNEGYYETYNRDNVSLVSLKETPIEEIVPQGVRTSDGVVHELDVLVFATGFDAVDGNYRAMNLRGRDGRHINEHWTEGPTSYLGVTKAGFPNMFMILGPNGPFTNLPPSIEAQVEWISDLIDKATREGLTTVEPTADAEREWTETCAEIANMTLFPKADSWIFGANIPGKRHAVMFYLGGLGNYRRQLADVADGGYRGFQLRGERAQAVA

CHMOAcineto = biological target: T2, CHMOAcineto (Acinetobacter johnsonii, UniProt P12015); assay: NADPH oxidation at […] nm; type: biochemical; settings: 100 μM NADPH, 50 mM Tris-HCl, 30 °C
T2 construct: gene chnB
T2 sequence (P12015 2-543): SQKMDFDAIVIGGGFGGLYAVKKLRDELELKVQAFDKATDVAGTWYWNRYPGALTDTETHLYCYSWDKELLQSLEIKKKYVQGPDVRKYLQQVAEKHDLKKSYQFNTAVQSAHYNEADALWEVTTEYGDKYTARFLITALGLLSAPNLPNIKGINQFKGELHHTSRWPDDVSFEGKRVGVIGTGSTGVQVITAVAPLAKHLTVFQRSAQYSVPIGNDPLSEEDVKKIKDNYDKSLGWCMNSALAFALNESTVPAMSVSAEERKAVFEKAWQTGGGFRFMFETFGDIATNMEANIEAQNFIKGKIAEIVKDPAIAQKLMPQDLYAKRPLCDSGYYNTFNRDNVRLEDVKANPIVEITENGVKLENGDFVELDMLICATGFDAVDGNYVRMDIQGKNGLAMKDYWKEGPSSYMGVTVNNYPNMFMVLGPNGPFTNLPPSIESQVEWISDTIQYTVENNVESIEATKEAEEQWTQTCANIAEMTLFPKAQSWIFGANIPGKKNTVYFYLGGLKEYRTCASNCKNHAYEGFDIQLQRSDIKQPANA

O=C1CCCCC1 = assay: purified protein; settings: 100 μM NADPH, 50 mM Tris-HCl, 30 °C

Row | Compound | NADPH oxidation at 340 nm (TmCHMO) | Km (CHMOAcineto) [µM] | Km (O=C1CCCCC1) [µM] | kcat (O=C1CCCCC1) [s⁻¹]
1 | O=C1CCCCC1 [cyclohexanone] | The activity was comparable to that of TmCHMO | 6.74 ± 2 |  | 
2 | BVMOFlava (Amycolatopsis thermoflava) |  |  | 0.53 ± 0.1 | 1.5 ± 0.1
